Values joined by “and” are separate entries in the source; they are usually repeats but may differ in a detail not shown here. Identical values can stand only once. Like-named read-outs stand apart in the source and are kept apart here.
How the values were obtained:
Format in all cases: cell-based
[1] = tested on: MCF-7 (human mammary carcinoma); test: Cytotoxicity test on sensitive tumour cell lines (sulforodamine B test); conditions: 24 h incubation, survival after 48 h, ± S.D., read-out: antiproliferative activity IC50, MCF-7
Method: (§1) This test was used to evaluate the survival of the human cell lines MCF-7 (human mammary carcinoma), LoVo (human colon adenocarcinoma), and MES-SA (human uterine sarcoma). The tumour cells were incubated with the compound, at scalar concentrations, (500 μM÷0.97 μM) for 24 hours; the compound was then removed and cell survival was evaluated after 48 hours using the sulforodamine B test (J. Natl. Cancer Inst. 82, 1107–1112). The antiproliferative activity of the compounds was evaluated in terms of the IC50 (concentration of the molecule that inhibits 50% of cell survival) processed with a curve-fitting program (Am. J. Physiol. 1978., 235, E97–E102) and expressed as μM±S.D.

[2] = tested on: LoVo (human colon adenocarcinoma); test: as above; conditions: 24 h incubation, survival after 48 h, ± S.D., read-out: antiproliferative activity IC50, Lovo
Method: as §1

[3] = tested on: MES-SA (human uterine sarcoma); test: as above; conditions: 24 h incubation, survival after 48 h, ± S.D., read-out: antiproliferative activity IC50, Mes-Sa
Method: as §1

[4] = tested on: HL60 cells (acute promyelocytic leukaemia); test: Flow cytofluorimetric analysis of cell cycle; conditions: ATRA 0.5 μM alone, day 3
Method: The second line used was the HL60 cell line which responds to ATRA (but is less sensitive than the NB4 cell line).
The HL60 and NB4 cells were seeded at a density of 150,000 cells/ml in RPMI 1640 medium containing 10% foetal calf serum, and were treated with the tested compounds in the presence and absence of suboptimal doses of ATRA (5–10 nM for NB4 and 0.5 μM for HL60, respectively) in the dark, and returned to the incubator for 3 days without ever replacing the culture medium.
(§2) To assess the effect of the tested compounds on the various phases of the cell cycle, on the third day of treatment 500,000 cells were harvested, centrifuged at 1,000 rpm for 10 minutes, washed twice in PBS w/o (PBS without calcium and magnesium) and fixed in a solution of 50% PBS w/o+50% methanol/acetone (1:4 v/v) for at least 1 hour; the cells were then centrifuged as described, washed in PBS w/o and centrifuged again.
(§3) 200 μl of propidium iodide 100 μg/ml and 200 μl of RNase 150 kU/mg were then added to the cell pellet.
(§4) After a 30-min incubation in the dark at room temperature, the samples were analysed by flow cytofluirometry.

[5] = tested on: NB4 cells (acute promyelocytic leukaemia); test: Flow cytofluorimetric analysis of cell cycle; parameters: APOPTOSIS: unit not given here; conditions: ATRA 0.01 μM alone, day 3
Method: The first line used was the NB4 cell line, bearing the t(15;17) chromosomal translocation which generates the fusion protein PML/RARα.
as §2, §3, §4

[6] = tested on: LoVo-Dx (human colon adenocarcinoma); test: Cytotoxicity test on resistant tumour cell lines, tested compound alone; conditions: 24 h incubation, survival after 48 h, ± SD
Method: (§5) This test was used to evaluate the survival of human cell lines resistant to doxorubicin (about 100 times) and cross-resistant to daunorubicin, actinomycin D, mitoxantrone, vincristine, vinblastin, taxol, colchicine, and etoposide.
(§6) The following cell lines were used: MCF-7-Dx (human mammary carcinoma), LoVo-Dx (human colon adenocarcinoma), MES-SA Dx (human uterine sarcoma).
(§7) Before using the association doxorubicin-tested compound, the cytotoxicity of the cells was evaluated with the tested compound (alone) as follows: the cells were incubated with the compound, at scalar concentrations (500 μM÷0.97 μM), for 24 hours; the compound was then removed and cell survival was evaluated after 48 hours with the above-mentioned sulforodamine B test. The antiproliferative activity of the compounds was evaluated in terms of IC50 (concentration of the compound that inhibits 50% of cell survival) processed with the above-mentioned curve-fitting program.

[7] = tested on: MCF-7-Dx (human mammary carcinoma); test: as above; conditions: 24 h incubation, survival after 48 h, ± SD
Method: as §5, §6, §7

[8] = tested on: MES-SA Dx (human uterine sarcoma); test: as above; conditions: 24 h incubation, survival after 48 h, ± SD
Method: as §5, §6, §7

In the case of `FCCCC[C@@H](c1cc2ccccc2[nH]1)c1c[nH]c2ccccc12` (racemic) [ST 1421, (R,S)-5-fluoro-1,1-(indol-2-ylindol-3-yl)-pentane], the IC50 [1] is reported as 20.4 ± 2.8 µM and the IC50 [2] is reported as 20.7 ± 0.7 µM.

`CCCC(c1cc2ccccc2[nH]1)c1c[nH]c2ccccc12` (racemic) [ST 1625, (R,S)-1,1-(indol-2-yl, indol-3-yl) butane] showed an IC50 [3] of 14.1 ± 3.8 µM, an IC50 [1] of 13.4 ± 1 µM and an IC50 [2] of 17.1 ± 3.8 µM.

Compound `OCCCC(c1cc2cc3c(cc2[nH]1)OCO3)c1c[nH]c2cc3c(cc12)OCO3` (racemic) [ST 1731, (R,S)-4-hydroxy-1,1-di-(5,6-methylenedioxy-indol-2-yl, 5,6-methylenedioxy-indol-3-Yl)-butane] has an IC50 [1] of 30.1 ± 4 µM and an IC50 [2] of 23.9 ± 0.7 µM.

For `CC1=C(/C=C/C(C)=C/C=C/C(C)=C/C(=O)O)C(C)(C)CCC1` [ATRA, all-trans retinoic acid, reference compound], the G0/G1 [4] was 63.3 and 63.4, the G2/M [4] was 11.0 and the S [4] was 25.7 and 25.6. For the same compound, the APOPTOSIS [5] was 10 and 17.5 and 12.5, the G0/G1 [5] was 54.6 and 65.0 and 55.8 and the G2/M [5] was 14.4 and 11.0 and 17.3. The S [5] was 31.0 and 24.0 and 26.9.

For `CC1(C)OCC(C(O)C2OC(C)(C)OC2C(c2c[nH]c3ccccc23)c2c[nH]c3ccccc23)O1` [ST 1339, 2,3-5,6-di-O-isopropylidene-1,1-di-indol-3-yl-1-deoxy-D-mannitol], the IC50 [6] was 11 ± 0.6 µM, the IC50 [7] was 98.2 ± 12 µM and the IC50 [8] was 56.1 ± 11 µM.

In the case of `OC[C@@H](O)[C@@H](O)[C@H](O)[C@@H](O)C(c1c[nH]c2ccccc12)c1c[nH]c2ccccc12` [ST 1350, 1,1-di-indol-3-yl-1-deoxy-D-glucose], the IC50 [6] is reported as > 500 µM, the IC50 [7] is reported as 70.8 ± 3.7 µM and the IC50 [8] is reported as 81.4 ± 8 µM.

For `CC1(C)O[C@@H]([C@H](O)[C@H]2COC(C)(C)O2)[C@@H](C(c2c[nH]c3ncccc23)c2c[nH]c3ncccc23)O1` [ST 1353, 2,3-5,6-di-O-isopropylidene-1,1-di-7-azaindol-3-yl-1-deoxy-D-mannitol], the IC50 [6] was 367 ± 82 µM and the IC50 [7] was > 500 µM.

`CC(=O)OC[C@@H](OC(C)=O)[C@@H](OC(C)=O)[C@H](OC(C)=O)[C@@H](OC(C)=O)C(c1c[nH]c2ccccc12)c1c[nH]c2ccccc12` [ST 1363, 1,1-di-indol-3-yl-1-deoxy-pentaacetyl-D-glucose] showed an IC50 [3] of 33.6 ± 5.9 µM, an IC50 [1] of 25 ± 2.8 µM and an IC50 [2] of 31.3 ± 1.6 µM. For the same compound, the IC50 [6] was 121 ± 12 µM and the IC50 [7] was 65.4 ± 0.7 µM.

Compound `CC(=O)OCCCCC(c1c[nH]c2ccccc12)c1c[nH]c2ccccc12` [ST 1371, 5-acetoxy-1,1-diindol-3-yl-pentane] has an IC50 ([1]; Homo sapiens, MCF7) of 27.7 ± 4.2 µM, an IC50 ([2]; Homo sapiens, LoVo) of 33 ± 3 µM and an IC50 ([6]; Homo sapiens, LoVo/DX) of 47.9 ± 4.7 µM. The IC50 ([7]; Homo sapiens, MCF7/DX) was 74.1 ± 2.5 µM and the IC50 ([8]; Homo sapiens, MES-SA Dx) was 53 ± 0.4 µM.

Work on `CCOC(=O)c1ccc(C(c2ccccc2)c2ccc(C(=O)OCC)[nH]2)[nH]1` [ST 1431, di-(5-ethoxycarbonyl-pyrrol-2-yl)-phenyl-methane] yielded an IC50 ([1]; Homo sapiens, MCF7) of 20.3 ± 1.4 µM and an IC50 ([2]; Homo sapiens, LoVo) of 35.6 ± 0.5 µM.

For `O=C(c1cn(Cc2ccccc2)c2ccccc12)c1cn(Cc2ccccc2)c2ccccc12` [ST 1473, di-(N-benzyl-indol-3-yl)-oxomethane], the IC50 ([6]; Homo sapiens, LoVo/DX) was 8.6 ± 2.9 µM, the IC50 ([7]; Homo sapiens, MCF7/DX) was > 500 µM and the IC50 ([8]; Homo sapiens, MES-SA Dx) was > 500 µM.

`CCCC(c1c[nH]c2ccc(NC(C)=O)cc12)c1c[nH]c2ccc(NC(C)=O)cc12` [ST 1477, 1,1-di-(5-acetamido-indol-3-yl)-butane] was tested, and the IC50 ([3]; Homo sapiens, MES-SA) was 28.7 ± 0.2 µM, the IC50 ([1]; Homo sapiens, MCF7) was 33.1 ± 2.9 µM and the IC50 ([2]; Homo sapiens, LoVo) was 59.4 ± 6.9 µM.

In the case of `CCC=C(c1cn(Cc2ccccc2)c2ccccc12)c1cn(Cc2ccccc2)c2ccccc12` [ST 1492, 1,1-di-(N-benzyl-indol-3-yl)-1-butene], the IC50 ([6]; Homo sapiens, LoVo/DX) is reported as > 350 µM and the IC50 ([8]; Homo sapiens, MES-SA Dx) is reported as 178 ± 41 µM.

For `CCCc1c(C(=O)c2cn(Cc3ccccc3)c3ccccc23)c2ccccc2n1Cc1ccccc1` [ST 1494, (N-benzyl-indol-3-yl, N-benzyl-2-propyl indol-3-yl)-oxomethane], the IC50 [6] was > 200 µM, the IC50 [7] was > 200 µM and the IC50 [8] was > 200 µM.

`OCCCC(c1c[nH]c2cc3c(cc12)OCO3)c1c[nH]c2cc3c(cc12)OCO3` [ST 1730, 4-hydroxy-1,1-di-(5,6-methylenedioxy-indol-3-yl)-butane] was tested, and the IC50 ([1]; Homo sapiens, MCF7) was 24.5 ± 3.7 µM and the IC50 ([2]; Homo sapiens, LoVo) was 9.3 ± 0.9 µM.
